Values of other authors, collected in patent US20190275119A1, “PROOXIDANT CANCER CHEMO-SUPPRESSORS AND CHEMO-PROTECTORS AND METHODS OF USE RELATED THERETO” (priority 2016, published 2019).

Tested on: tumor cells
Conditions: low concentrations (about 10 μM)

## O=CC=Cc1ccccc1OC(=O)c1ccccc1 [BCA, 2′-benzoyl-oxycinnamaldehyde]
  growth inhibition and apoptosis of tumor cells: inhibit growth and induce apoptosis of tumor cells

## O=CC=Cc1ccccc1O [HCA, 2′-hydroxycinnamaldehyde]
  growth inhibition and apoptosis of tumor cells: inhibit growth and induce apoptosis of tumor cells
